From patent publication US8383642B2, “Spiropiperidine compounds” (Eli Lilly and Company, priority 2009, dated 2013)

Key:
Male Balb/c mice = assay: Intraperitoneal Glucose Tolerance Test (IPGTT); type: in vivo, mouse; conditions: for glucose levels: positive control 10 mg/kg
Procedure: To examine the ability of exemplified compounds to activate GPR40 in-vivo resulting in anti-diabetic efficacy, i.e. an increase in insulin and reduction in glucose levels, a 4-day intraperitoneal glucose tolerance test (ipGTT) study is completed with each compound.
Male Balb/c (Albino mice) mice (8-9 weeks of age) are single housed and fed with normal rodent chow diet and water ad libitum. Animals are weighed and randomized by body weight and daily body weights are recorded. Upon study initiation, animals are dosed once per day orally for three days using a formulation carrying methylcellulose and tween-80. On the night before the 4-day IPGTT study, animals are fasted overnight in clean cages. On the morning of the IPGTT (Day 4), animals are dosed orally with compound or vehicle alone 60 minutes prior to the IPGTT (glucose 2 g/kg, i.p.). Blood glucose levels are determined from tail bleeds taken at 0, 3, 7, 15, 30, and 60 min after glucose challenge. Plasma is isolated and used to estimate respective insulin levels. The blood glucose excursion profile from t=0 to t=60 min is used to integrate an area under the curve (AUC) for each treatment. Percent lowering in glucose is calculated from the AUC data of the compounds with respect to the AUC of vehicle group. The test compound is orally administered at 0.03, 0.1, 0.3, 1.0, or 3.0 mg/kg, and a positive control is administered at 10 mg/kg. […] The ED50 for the compound of Example 1 based on AUCs for glucose lowering is 0.09 mg/kg. […] The results of this assay support the compound's activation of GPR-40, with resulting in vivo anti-diabetic efficacy.

Gal4 PPARδ = biological target: T1, Gal4 PPARδ (Homo sapiens, UniProt Q03181); assay: Gal4 PPARδ reporter functional assay (CTF); type: cell-based; conditions: examined up to 10 μM; CV1 cells; luciferase
T1 construct: expressed in transfected cells; host or cells: CV1 (African green monkey kidney)
T1 sequence (Q03181 211-439 limits assumed): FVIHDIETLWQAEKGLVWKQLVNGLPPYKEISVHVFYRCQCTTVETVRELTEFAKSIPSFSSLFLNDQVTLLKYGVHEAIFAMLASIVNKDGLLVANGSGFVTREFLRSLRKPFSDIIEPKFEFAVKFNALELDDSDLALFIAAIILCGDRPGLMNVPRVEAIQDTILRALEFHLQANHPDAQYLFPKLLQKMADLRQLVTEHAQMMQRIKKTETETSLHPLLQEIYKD
Excerpt: Gal4 PPARα, Gal4 PPARδ, and PPARγ reporter functional assays are also used to monitor the selectivity of exemplified compounds. CV1 cells, which are derived from the renal tissue of an African green monkey, are transfected with various receptor and reporter plasmids using Fugene. For the Gal4 PPARα and PPARδ assays, a reporter plasmid containing five tandem copies of the yeast transcription protein Gal4 response element, cloned upstream of a firefly luciferase gene driven by the major late promoter of adenovirus, is transfected together with a Simian Virus 40 (SV40) driven plasmid constitutively expressing a hybrid protein containing the Gal4 DNA binding domain (DBD), and either the PPARα or PPARδ ligand binding. For the PPARγ assay, plasmids encoding PPARγ and RXRα, both driven by a cytomegalovirus (CMV) promoter are transfected together with a plasmid containing luciferase reporter cDNA driven by the TK promoter and a receptor response element (2×PPRE). Cells are transfected in T225 cm^2 cell culture flasks in DMEM media with 5% charcoal-stripped FBS. […] After 24 hours incubation with compounds, cells are lysed and luciferase activity is determined as a measure of receptor activation by luminescence. […] The maximum percent stimulation is determined versus maximum stimulation obtained with 10 μM of an appropriate PPAR agonist reference compound. […]

pancreatic islets = assay: GDIS assay, primary rodent pancreatic islets of Langerhans; type: cell-based; conditions: different concentrations; compared to 11.2 mM glucose alone; 90 minutes; SD rat islets
Excerpt: Because activation of GPR40 is known to result in insulin secretion which is dependent on high glucose concentrations, two separate assay systems (insulinoma cell line and primary rodent islets) are developed to further characterize compounds that are known to increase intracellular calcium in the GPR40 primary assay discussed above.
GDIS assays using primary rodent pancreatic islets of Langerhans are also used to characterize exemplified compounds. Pancreatic islets are isolated from male SD (Sprague Dawley) rats by collagenase digestion and Histopaque density gradient separation. The islets are cultured overnight in RPMI-1640 medium with GlutaMAXn (stabilized, dipeptide form of L-glutamine (Invitrogen catalog #61870-010)) to facilitate recovery from the isolation process. Insulin secretion is determined by a 90 minute incubation in EBSS (Earle's Balances Salt Solution) buffer in a 48-well plate. Briefly, islets are first preincubated in EBSS with 2.8 mM glucose for 30 min and are then transferred to a 48-well plate (four islets/well) containing 150 μl 2.8 mM glucose and incubated with 150 μl of EBSS with 2.8 or 11.2 mM glucose in the presence or absence of test compounds for 90 minutes. The buffer is removed from the wells at the end of the incubation and assayed for insulin levels using the Rat Insulin ELISA kit (Mercodia). […]

human GPR40 = biological target: T2, human GPR40 (Homo sapiens, UniProt O14842); assay: Calcium Flux Primary Assay; type: cell-based
T2 construct: expressed in transfected cells; host or cells: HEK293
T2 sequence (O14842 whole entry): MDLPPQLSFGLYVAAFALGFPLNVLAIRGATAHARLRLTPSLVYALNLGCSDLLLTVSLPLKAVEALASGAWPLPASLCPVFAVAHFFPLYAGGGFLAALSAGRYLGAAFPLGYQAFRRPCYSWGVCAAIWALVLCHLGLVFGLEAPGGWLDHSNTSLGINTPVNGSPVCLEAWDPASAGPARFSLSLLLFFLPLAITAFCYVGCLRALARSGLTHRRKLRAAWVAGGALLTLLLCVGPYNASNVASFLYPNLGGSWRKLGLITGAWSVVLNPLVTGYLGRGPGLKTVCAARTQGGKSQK
Procedure: HEK293 cells over expressing the human GPR40 cDNA maintained in Dulbecco's modified Eagle's medium with F12 medium in 3:1 ratio supplemented with 10% FBS and 800 μg/ml geneticin at 37° C. and 5% CO2 are employed for the study. Agonist assays are performed using a Calcium 4 Dye assay kit (Molecular Devices) in the presence (0.1%) or absence of fatty acid free BSA in the assay buffer (1×HBSS (Hank's Balanced Salt Solution) & 20 mM HEPES (4-(2-hydroxyethyl)-1-piperazineethanesulfonic acid). Receptor activation is measured as an increase in intracellular calcium using the Fluorometric Imaging Plate Reader (FLIPR). Maximum change in fluorescence over the base line is used to determine agonist response. EC50 (effective concentration at half the maximal response) value of the compound is calculated using Excel Fit software (version 4; IDBS) by plotting concentration vs relative fluorescence units (RFUs).

**Q.** Which insulin levels (Male Balb/c mice; 3 minute time point, 1.0 and 3.0 mg/kg oral) does the source give for `CC#C[C@@H](CC(=O)O)c1ccc(OCc2ccc(CN3CCC4(C=Cc5ccccc54)CC3)cc2)cc1` [Example 1, (3S)-3-(4-{[4-(1′H-Spiro[indene-1,4′-piperidin]-1′-ylmethyl)benzyl]oxy}phenyl)hex-4-ynoic acid] here?
**A.** significantly elevated

**Q.** What about the glucose levels (Male Balb/c mice; 3 minute time point, Example 1 0.03-3.0 mg/kg oral) of the same compound?
**A.** No concentration of the compound of Example 1 or the positive control significantly lowered

**Q.** What about the glucose levels (Male Balb/c mice; 7 minute time point, Example 1 0.3, 1.0, and 3.0 mg/kg oral) of the same compound?
**A.** significantly lowered

**Q.** And the glucose levels (Male Balb/c mice; 15 minute time point, Example 1 0.1, 0.3, 1.0, and 3.0 mg/kg oral)?
**A.** significantly lowered

**Q.** And the glucose levels (Male Balb/c mice; 30 minute time point, all doses of Example 1 (0.03-3.0 mg/kg oral))?
**A.** significantly lowered

**Q.** What about the glucose levels (Male Balb/c mice; 60 minute time point, all doses of Example 1 (0.03-3.0 mg/kg oral)) of the same compound?
**A.** significantly lowered

**Q.** What about the ED50 (Male Balb/c mice; Mus musculus, oral, once per day, 4-day, glucose 2 g/kg i.p., AUC t=0 to 60 min, read-out: ED50 based on AUCs for glucose lowering) of the same compound?
**A.** 0.09 mg/kg

**Q.** What about the functional activation (Gal4 PPARδ) of the same compound?
**A.** No functional activation

**Q.** What about the increase in insulin (pancreatic islets) of the same compound?
**A.** 2- to 4 fold

**Q.** What about the EC50 (human GPR40; HEK293 cells over expressing human GPR40, FLIPR calcium) of the same compound?
**A.** 186 nM

**Q.** And the efficacy (human GPR40; maximal response compared to the natural ligand, linoleic acid)?
**A.** 91+/−10%
